What all share (type): physicochemical
The nature of data set [1]: PTR-MS real-time headspace release, watermelon flavor model in water (Example 1). Also noted: Sample A (PG) Mean / Sample B (1,3-propanediol) Mean: unit not given here. Conditions: for Sample B (1,3-propanediol) Mean / Sample A (PG) Mean: PTR-MS headspace, diluted in water, 90 minutes equilibration, mean of three; for Sample B (1,3-propanediol) Mean: watermelon flavor concentrate in 1,3-propanediol; for Sample A (PG) Mean: watermelon flavor concentrate in propylene glycol; for Percent Release Difference: Sample B (1,3-propanediol) relative to Sample A (PG). As to the method: The impact of 1,3-propanediol on the release of flavor compounds can be analyzed by Proton Transfer Reaction Mass Spectrometry (PTR-MS; model TOF-8000 from Ionicon Analytik Inc.), where real-time headspace release of volatiles is measured. A sampling apparatus is needed in conjunction with the PTR-MS inlet to prevent variations caused by headspace kinetics. By one exemplary approach, the sampling apparatus includes a 4 ounce sample vessel equipped with a 2-hole lid which may be sealed by an adhesive film to allow equilibration. […]. The holes are equal sized (˜2 mm diameter) and match the outer diameter of the PTR-MS inlet line. The flow of the dilution gas into the vessel is regulated by the vacuum and proportional valve of the PTR-MS inlet system. The sample vessel has a base diameter of 47 mm and is 45 mm high, of which 8 mm of height is occupied by the sample in the vessel in these experiments. The 2 holes in the lid are equidistant from the edge of the vessel (˜20 mm) and about 30 mm from each other. The PTR-MS inlet is braced by clamps in a fixed position vertically above the laboratory bench (˜55 mm) and a silicone rubber depth gauge is affixed to the PTR-MS inlet tubing and set at 18 mm. The PTR-MS inlet is thus consistently oriented in a vertical position 18 mm below the inside lid of the vessel and 19 mm above the sample in the vessel. The sample vessel is then held in place during sampling according to the depth gauge on the inlet line and the vessel is subsequently supported on the bench by a 10 mm plastic spacer.
15 grams of the sample to be tested (e.g., food or beverage product containing 1,3-propanediol) are added to the vessel. The vessel is sealed and allowed to equilibrate at room temperature (˜22° C.) for 90 minutes. At the time of sampling, the seal is removed from both the sampling hole and the dilution gas hole in the lid and the vessel is immediately affixed to the PTR-MS inlet via the sampling hole. The real-time released flavor is measured from the headspace of the sample vessel for two minutes (according to the conditions listed in Table 1 below). A comparative sample is prepared that is otherwise identical to the test sample but contains propylene glycol or water instead of 1,3-propanediol. The comparative sample is then analyzed in triplicate by PTR-MS using the above-described procedure. The data can be analyzed using PTR-MS Viewer, Version 3.0.0.101 (Ionicon Analytik G.m.b.H). The point of maximum intensity for each compound of interest can be determined and recorded according to the PTR-MS Viewer software. The maximum intensity in counts over the timescale for each compound of interest can be used for data analysis as it reflects the static equilibrium headspace concentration in the system at the moment of seal removal. Due to the necessity of a dilution gas, the volatile concentration decreases over time as the compounds of interest re-equilibrate to a state of dynamic equilibrium in the headspace.
[…]. Sample A was prepared with 20 grams watermelon flavor concentrate and 80 grams propylene glycol. Sample B was prepared with 20 grams watermelon flavor concentrate and 80 grams 1,3-propanediol. Each of the samples was further diluted by adding 0.08 grams of each diluted concentrate to 99.92 grams water to provide a flavor water solution.
The diluted samples were analyzed by Proton Transfer Reaction Mass Spectrometry (PTR-MS; model TOF-8000 from Ionicon Analytik Inc.) for real-time headspace release volatiles measurement. Samples were analyzed in triplicate. […]. […].

The nature of data set [2]: PTR-MS headspace release with various non-aqueous liquids (diols) at 0.05:100 (Example 3). The following applies: ratio 0.05:100; for PTR-MS headspace release in 1,3-butanediol: non-aqueous liquid 1,3-butanediol; for PTR-MS headspace release in 1,3-butanediol / PTR-MS headspace release in 1,3-propanediol / PTR-MS headspace release in 1,4-butanediol / PTR-MS headspace release in 1,7-heptanediol / PTR-MS headspace release in Propylene glycol: diluted in water; for PTR-MS headspace release in 1,3-propanediol: non-aqueous liquid 1,3-propanediol; for PTR-MS headspace release in 1,4-butanediol: non-aqueous liquid 1,4-butanediol; for PTR-MS headspace release in 1,7-heptanediol: non-aqueous liquid 1,7-heptanediol; for PTR-MS headspace release in Propylene glycol: non-aqueous liquid propylene glycol. In short, it runs like this: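 Flavour compounds were diluted in water to a final 8 ppm each, with furfuryl mercaptan at 1.6 ppm, keeping the compound to diol ratio at 0.05:100 across several diols. Headspace was measured by PTR-MS, and % suppression was computed as (I1,3-diol − Ialternate diol)/Ialternate diol × 100.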

Data set [3] is described as follows: PTR-MS headspace release from stored beverages, water/solvent experiment (Example 4). Conditions: beverage stored refrigerated; 1.5, 24, 48 and 72 hours; Tukey-Kramer. As to the method: 0.86 grams of the flavor concentrate was then added to 100 grams of either propylene glycol or 1,3-propanediol to provide diluted concentrates. […].
The beverages were then stored in sealed containers in a refrigerator. The container was opened five times over the course of the experiment and therefore represented a beverage in a sealed container being opened for multiple uses. 15 gram samples were weighed into a 4 ounce cup and analyzed at 1.5 hours, 24 hours, 48 hours, and 72 hours after storage.
The samples were analyzed in triplicate by PTR-MS as described below to determine impact of 1,3-propanediol or propylene glycol on release of the flavors from the beverage. The PTR-MS was performed as follows. A sampling apparatus was needed in conjunction with the PTR-MS inlet to prevent variations caused by headspace kinetics. The sampling apparatus used includes a 4 ounce sample vessel equipped with a 2-hole lid which may be sealed by an adhesive film to allow equilibration. […]. The holes were equal sized (˜2 mm diameter) and match the outer diameter of the PTR-MS inlet line. The flow of the dilution gas into the vessel was regulated by the vacuum and proportional valve of the PTR-MS inlet system. […] The 2 holes in the lid were equidistant from the edge of the vessel (˜20 mm) and ˜30 mm from each other. The PTR-MS inlet was braced by clamps in a fixed position vertically above the laboratory bench (˜55 mm) and a silicone rubber depth gauge was affixed to the PTR-MS inlet tubing and set at 18 mm. The PTR-MS inlet was consistently oriented in a vertical position […] below the inside lid of the vessel and 19 mm above the sample in the vessel. The sample vessel was then held in place during sampling according to the depth gauge on the inlet line and the vessel was subsequently supported on the bench by a 10 mm plastic spacer.
15 grams of the sample to be tested (e.g., food or beverage product containing 1,3-propanediol) are added to the vessel and the vessel is sealed and allowed to equilibrate at room temperature (˜22° C.) for 90 minutes. At the time of sampling, the seal was removed from both the sampling hole and the dilution gas hole in the lid and the vessel was immediately affixed to the PTR-MS inlet via the sampling hole. The real-time released flavor was measured from the headspace of the sample vessel for two minutes (according to the conditions listed in Table 1 above).
The data was analyzed using PTR-MS Viewer, Version 3.0.0.101 (Ionicon Analytik G.m.b.H). The point of maximum intensity for each compound of interest was determined and recorded according to the PTR-MS Viewer software. The maximum intensity in counts over the timescale for each compound of interest was used for data analysis as it reflected the static equilibrium headspace concentration in the system at the moment of seal removal. Due to the necessity of a dilution gas, the volatile concentration decreased over time as the compounds of interest re-equilibrated to a state of dynamic equilibrium in the headspace.
The statistical differences were determined by Tukey-Kramer Honest […]. […].

SMILES strings stand for the structures.

With `CC=O` [Acetaldehyde], in data set [1], the “Sample B (1,3-propanediol) Mean” value is reported as 877, the “Sample A (PG) Mean” value worked out at 803.33 and the “Percent Release Difference” value is 9.1%. For the same compound, in data set [2], the “PTR-MS headspace release in 1,3-butanediol” value was found to be 157.0, the “PTR-MS headspace release in 1,3-propanediol” value is recorded as 104.00, the “PTR-MS headspace release in 1,4-butanediol” value is on record as 196.5 and the “PTR-MS headspace release in 1,7-heptanediol” value is recorded as 206.5. For the same compound, in data set [2], the “PTR-MS headspace release in Propylene glycol” value stood at 165.85 and the “Percent suppression by 1,3-butanediol relative to 1,4-butanediol” value is on record as −25.2%. The “effect of 1,3-propanediol on flavor release relative to propylene glycol, water/solvent” value in data set [3] is “released faster in propylene glycol”.
For `CCCC(=O)OCC` [Ethyl butyrate], in data set [1], the “Sample B (1,3-propanediol) Mean” value was 5827, the “Sample A (PG) Mean” value stood at 10983 and the “Percent Release Difference” value is given as −46.9%. In data set [2], the “PTR-MS headspace release in 1,3-butanediol” value amounted to 141.5, the “PTR-MS headspace release in 1,3-propanediol” value was found to be 46.20, the “PTR-MS headspace release in 1,4-butanediol” value was found to be 239.3 and the “PTR-MS headspace release in 1,7-heptanediol” value is on record as 223.5. Further, in data set [2], the “PTR-MS headspace release in Propylene glycol” value is 40.20 and the “Percent suppression by 1,3-butanediol relative to 1,4-butanediol” value is −69.10%. The “effect of 1,3-propanediol on flavor release relative to propylene glycol, water/solvent” value in data set [3] was “little effect”.
With `O=Cc1ccccc1` [Benzaldehyde], in data set [1], the “Sample B (1,3-propanediol) Mean” value stood at 32.00, the “Sample A (PG) Mean” value is 39.67 and the “Percent Release Difference” value is on record as −19.3%. Also, in data set [2], the “PTR-MS headspace release in 1,3-butanediol” value is on record as 250.0, the “PTR-MS headspace release in 1,3-propanediol” value was 13.20, the “PTR-MS headspace release in 1,4-butanediol” value was found to be 354.0 and the “PTR-MS headspace release in 1,7-heptanediol” value came to 357.5. In addition, in data set [2], the “PTR-MS headspace release in Propylene glycol” value came to 136.25 and the “Percent suppression by 1,3-butanediol relative to 1,4-butanediol” value is reported as −41.6%. The “effect of 1,3-propanediol on flavor release relative to propylene glycol, water/solvent” value in data set [3] is on record as “significantly suppressed release”.

Source of the values: patent US9883691B2, “Food and beverage products containing 1,3-propanediol and methods of modifying flavor release using 1,3-propanediol” (Kraft Foods Group Brands LLC, priority 2012, dated 2018).
